The values that follow come from patent publication US20050187262A1, “Compositions comprising (S)-amlodipine and an angiotensin receptor blocker and methods of their use” (priority 2004, published 2005).

What all share (assay type): in vivo, rat
For series [1], the system named is rats. The procedure:
(§1) (S)-amlodipine malate and seven ARBs (candasartan, eprosartan, irbesartan, losartan, olmesartan, telmisartan and valsartan) were evaluated. The study was conducted in three parts. Phase I evaluated the time-course of the hypotensive actions of all eight agents ([S]-amlodipine and the seven ARBs). In Phase II, the dose-responsive effects of [S]-amlodipine malate and the seven ARBs were evaluated individually. From this phase of the study, ED30 and ED50 doses of each of the seven ARBs were identified, defined as the dose that produced 30 or 50 percent of the hypotensive effect produced by a rapid i.v. injection (30 μg/kg) of sodium nitroprusside (NTP), a short-acting vasodilator. In Phase III, the dose response to [S]-amlodipine was evaluated in the presence and absence of the ED30 and ED50dose of each of the seven ARBs, with the objective of comparing the extent to which each ARB, at its ED30 or ED50, shifted the dose-response curve of [S]-amlodipine to the left and thus, lowering the apparent ED50 of the calcium channel blocker.
(§2) Animals were anesthetized with thiobutabarbital sodium (Inactin®, 150 mg/kg, delivered i.p.), tracheotomized and placed on a thermostatically controlled heating pad (37-38° C.). The jugular vein and the carotid artery were cannulated with PE-50 tubing for drug administration and recording of cardiovascular parameters, respectively. Blood pressure was recorded from the carotid artery by means of a pressure transducer and heart rate was derived electronically from the blood pressure signal. The signal output derived electronically from the arterial pressure was analyzed with a digital computer. The software IOX-16 continuously recorded the data every 5 sec during the entire procedure for each rat. Raw arterial pressure (in mmHg) and heart rate (beats per min), as well as changes in these two parameters relative to baseline or pre-drug levels (for doses other than initial dose), both in raw units (mm Hg or beats per min [bpm]) and as percentage change from baseline were captured and analyzed. The animals were allowed to equilibrate for 15-20 min before any treatment.
(§3) Doses are expressed in terms of free active substance. Each treatment was administered in a volume of 1 mL/kg by slow (over 20-30 seconds) i.v. bolus for all test articles, in all three phases.
(§4) The data were reported as mean±S.E.M. (standard error of the mean) from 3-5 rats per group. Raw arterial pressure (in mmHg) and heart rate (beats per min), as well as changes in these two parameters relative to baseline or pre-drug levels (for doses other than initial dose), both in raw units (mmHg or beats per min [bpm]) and as percentage change from baseline, were captured and analyzed.

Series [2] relates to rats. The series can be described thus: Phase II: dose-responsive hypotensive effects of the individual agents, ED30/ED50 relative to sodium nitroprusside. The settings on record: for ED30: dose causing 30% of the maximal drop in blood pressure produced by sodium nitroprusside 30 μg/kg i.v.; for ED50: Rattus norvegicus. The procedure:
as §1, with “From this phase of the study, ED30 and ED50 doses of each of the seven ARBs were identified, defined as the dose that produced 30 or 50 percent of the hypotensive effect produced by a rapid i.v. injection (30 μg/kg) of sodium nitroprusside (NTP), a short-acting vasodilator.” left out
as §2, with “The” for “Animals were anesthetized with thiobutabarbital sodium (Inactin®, 150 mg/kg, delivered i.p.), tracheotomized and placed on a thermostatically controlled heating pad (37-38° C.). The”
as §3, §4

Series [3] concerns rats. The series can be described thus: Phase III: dose response to (S)-amlodipine malate in the absence and presence of an ARB. The following applies: for position/shift of the dose response curve of (S)-amlodipine malate plus ARB versus (S)-amlodipine malate alone: ARB given at its ED30, FIGS. 1A and 1B; for ED50: Rattus norvegicus, iv, ARB given at its ED30, read-out: apparent ED50 of (S)-amlodipine malate when combined with the ARB; for Potential Dosage Adjustment (%): extent to which (S)-amlodipine malate could be lowered when co-administered with the ARB. The procedure: as §1, §2, §3, §4
ED30 and ED50 for each drug were defined as the dose causing a decline in arterial pressure corresponding to 30% and to 50%, respectively, of the maximal drop in blood pressure produced by fast bolus i.v. injection (30 μg/kg) of sodium nitroprusside.
Dose-response curves with (S)-amlodipine malate in the absence and presence of each of the seven ARBs at its ED30 are shown in FIGS. 1A and 1B. The data shown in the figures are from experiments in which ED30 doses of each of the ARBs was combined with (S)-amlodipine malate. These were chosen because ED30 doses were obtainable by direct interpolation of dose response curves from Phase II. For several of the ARBs, doses corresponding to ED50 were obtained from extrapolation of their dose response curves.

The mark [4] stands for this setting: iv, dose causing 50% of the maximal drop in blood pressure produced by sodium nitroprusside 30 μg/kg i.v., read-out: ED50 (estimated).
The mark [5] stands for this setting: iv, hypotensive effect did not reach 50% of the maximum NTP effect, read-out: ED50 (extrapolated from dose response curve).

In the case of `CCOC(=O)C1=C(COCCN)NC(C)=C(C(=O)OC)[C@@H]1c1ccccc1Cl.O=C(O)C[C@H](O)C(=O)O` [(S)-amlodipine malate, (S)-Amlodipine-L-Malate], the “time post-injection to maximum/peak hypotensive effect” value in the series on rats [1] (100 μg/kg i.v.) lay in the range of 35 to 55 min. For the same compound, the “maximum effect, decrease in blood pressure” value in the series on rats [1] (100 μg/kg i.v., anesthetized rats) is on record as 14-17 mmHg. Moreover, the “maximum decline in MBP from baseline values” in the series with rats [2] (doses 3 to 300 μg/kg i.v.) turned out to be 49±1%. This compound also gave an ED30 with rats [2] (i.v.) of 0.056 mg/kg. For the same compound, the “ED50 (estimated)” value in the series with rats [2] (i.v., dose causing 50% of the maximal drop in blood pressure produced by sodium nitroprusside 30 μg/kg i.v.) is 0.11 mg/kg. Also, the “HR after injection of each dose” value in the series on rats [2] (rat, in vivo, iv) is “gradually and concomitantly increased”. The “ED50 of (S)-amlodipine malate in the absence of an ARB” value in the series on rats [3] (i.v., no ARB) was found to be 0.092 mg/kg.
Regarding `CCOc1nc2cccc(C(=O)O)c2n1Cc1ccc(-c2ccccc2-c2nnn[nH]2)cc1` [Candasartan, 2-ethoxy-1-[[2′-(1H-tetrazol-5-yl)[1,1′-biphenyl]-4-yl]methyl]-1H-benzimidazole-7-carboxylic acid], in the series with rats [1] (30 μg/kg i.v.), the “time post-injection to maximum decline of MBP” value worked out at 30 min. Further, in the series with rats [1] (30 μg/kg i.v., at 30 min post-injection), the “maximum declines of mean blood pressure (MBP)” value was “about 20 mmHg”. Besides, the “decline in MBP at the next higher dose” value in the series on rats [2] (300 mg/kg i.v.) is “no further decline”. The ED50 (usually the midpoint of the dose-response relation) in the series on rats [2] (setting [4]) is 0.052 mg/kg. For the same compound, the ED30 with rats [2] (i.v.) amounted to 0.008 mg/kg. For the same compound, in the series with rats [2] (reached with 100 μg/kg i.v.), the “maximum decrease in MBP from baseline values” (from here on “maximum decrease in MBP”) is given as 34±2%. For the same compound, the “position/shift of the dose response curve of (S)-amlodipine malate plus ARB versus (S)-amlodipine malate alone” value (from here on “position/shift”) with rats [3] is reported as “offset”.
`CCCCc1ncc(/C=C(\Cc2cccs2)C(=O)O)n1Cc1ccc(C(=O)O)cc1` [Eprosartan, (E)-α-[[2-butyl-1-[(4-carboxyphenyl)methyl]-1H-imidazol-5-yl]methylene]-2-thiophenepropanoic acid]: in the series with rats [2] (3000 mg/kg i.v.), the “fall in MBP from baseline values at the next higher dose” value (shortened to “fall in MBP from baseline values”) came to 23±2%. The figures for the ED50 with rats [2] (setting [5]) and in the series on rats [3] were around 7 mg/kg and 0.07 mg/kg, respectively. For the same compound, the ED30 with rats [2] (i.v.) is 0.104 mg/kg. For the same compound, the “maximum decrease in MBP” value in the series with rats [2] (reached with 1000 μg/kg i.v.) stood at 22±2%. Moreover, the “Potential Dosage Adjustment (%)” value in the series on rats [3] came to 24%.
In the case of `CCCCC1=NC2(CCCC2)C(=O)N1Cc1ccc(-c2ccccc2-c2nnn[nH]2)cc1` [Irbesartan, 2-butyl-3-[[2′-(1H-tetrazol-5-yl)[1,1′-bephenyl]-4-yl]methyl]-1,3-diazaspiro[4,4]non-1-en-4-one], the ED50 in the series on rats [2] (setting [4]) was 2.21 mg/kg. In the series on rats [2] (i.v.), this compound gave an ED30 of 0.649 mg/kg. Besides, in the series on rats [2] (reached with 3,000 μg/kg i.v.), the “maximum decrease in MBP” value was 28±1%. In the series with rats [3], the ED50 is 0.071 mg/kg and the “Potential Dosage Adjustment (%)” value is on record as 23%.
As to `CCCCc1nc(Cl)c(CO)n1Cc1ccc(-c2ccccc2-c2nnn[nH]2)cc1` [Losartan, 2-butyl-4-chloro-1-[[2′-(1H-tetrazol-5-yl)[1,1′-biphenyl]-4-yl]methyl]-1H-imidazole-5-methanol], the ED50 in the series with rats [2] (setting [5]) was 10 mg/kg. For the same compound, in the series on rats [2] (i.v.), the ED30 amounted to 0.625 mg/kg. The “maximum decrease in MBP” value in the series with rats [2] (reached with 3,000 μg/kg i.v.) amounted to 23±3%. In the series with rats [3], the ED50 came to 0.078 mg/kg and the “Potential Dosage Adjustment (%)” value is 15%.
Take `CCCc1nc2c(C)cc(-c3nc4ccccc4n3C)cc2n1Cc1ccc(-c2ccccc2C(=O)O)cc1` [Telmisartan, 4′-[(1,4′-dimethyl-2′-propyl[2,6′-bi-1H-benzimidazol]-1′-yl)methyl]-[1,1′-biphenyl]-2-carboxylic acid]: in the series with rats [2] (1000 mg/kg i.v.), the “fall in MBP from baseline values” value was determined as 23±3%. In addition, the ED50 in the series with rats [2] (setting [5]) is around 2 mg/kg. The compound also gave an ED30 with rats [2] (i.v.) of 0.242 mg/kg. For the same compound, in the series on rats [2] (reached with 300 μg/kg i.v.), the “maximum decrease in MBP” value came out at 19±2%. The “position/shift” value with rats [3] was “offset”.
As for `CCCCC(=O)N(Cc1ccc(-c2ccccc2-c2nnn[nH]2)cc1)[C@H](C(=O)O)C(C)C` [Valsartan, N-(1-oxopentyl)-N-[[2′-(1H-tetrazol-5-yl)[1,1′-biphenyl]-4-yl]methyl]-L-valine], the “fall in MBP from baseline values” value with rats [2] (1000 mg/kg i.v.) was determined as 19±3%. Moreover, in the series with rats [2] (setting [5]), the ED50 was around 4 mg/kg. This compound came in with an ED30 in the series on rats [2] (i.v.) of 0.229 mg/kg. In addition, the “maximum decrease in MBP” value in the series with rats [2] (reached with 300 μg/kg i.v.) turned out to be 18±3%. Also, in the series with rats [3], the “position/shift” value is on record as “greatest leftward shift”, the ED50 stood at 0.063 mg/kg and the “Potential Dosage Adjustment (%)” value was 32%.
